Measurements published in patent US6407080B2, “N-(pyrimidinyl)-aspartic acid analogs as interleukin-1β converting enzyme inhibitors” (Vertex Pharmaceuticals Incorporated, priority 1994, dated 2002).

Key:
[1] = test system: release of mature IL-1β from human monocytes; assay: Human monocyte pulse chase assay, inhibition of release of mature IL-1β (called "in vivo"); format: cell-based; settings: freshly isolated human monocytes activated with fixed S. aureus, 2-3 donors, values approximate
Experimental: In vivo inhibition (IC50) was determined based on Miller et al., “Inhibition of Mature IL-1β Production in Murine Macrophages and a Murine Model of Inflammation By WIN 67694, An Inhibitor of IL-1β Converting Enzyme, J. Immunol., 1994, 154, 1331, as follows:
Human monocytes were isolated from heparinized leukopheresis units obtained through Biological Specialty Corporation (Lansdale, Pa.). Monocytes were purified by Ficoll-Hupaque (Pharmacia Fine Chemicals, Piscataway, N.J.) gradient centrifugation and more than 95% pure monocyte populations obtained by centrifugal elutriation. The assay was performed on duplicate samples of freshly isolated human monocytes, cultured in suspension at 37° C. and rotated gently in conical bottom polypropylene tubes (Sardstedt Inc., Princeton, N.J.). Human monocytes at a concentration of 5×10^6 cells/mL were resuspended in 1 mL of RPMI 1640 (a common tissue buffer from M.A. Bioproducts, Walkersville, Md.) containing 1% fetal calf serum (FCS) (HyClone, Logan, Utah) and 50 μg/mL gentamycin (Gibco, Grand Island, N.Y.). The cells were treated either with a compound of the invention (i.e. test compound) or with a non-inhibitor (control compound, typically 0.03% DMSO) for 15 minutes and then activated with 0.01% fixed Staphylococcus aureus (The Enzyme Center, Malden, Mass.) for 1 hour. The cells were then centrifuged and resuspended in 1 mL of cysteine, methionine-free RPMI media containing 1% dialyzed FCS (Hyclone). The cells were pretreated with a test compound or control compound for 15 minutes after which 0.01% fixed S. aureus plus 100 μCi Tran 35-S label (ICN, Irvine, Calif.) was added and the cells incubated at 37° C. for 1 hour. After incubation, […]. The cells were again pretreated with a test or control compound for 15 minutes and then 0.01% S. aureus for 2 hours. […]
In the monocyte pulse chase assay, each test parameter was run in duplicate. […] When test compounds were evaluated, the percent inhibition of release of mature IL-β was calculated as follows: […]

elastase = target: T1, elastase (Homo sapiens, UniProt P08246); assay: Elastase inhibition (in vitro); format: biochemical; settings: in vitro assay per Cha; did not inhibit elastase
T1 sequence (P08246 30-267): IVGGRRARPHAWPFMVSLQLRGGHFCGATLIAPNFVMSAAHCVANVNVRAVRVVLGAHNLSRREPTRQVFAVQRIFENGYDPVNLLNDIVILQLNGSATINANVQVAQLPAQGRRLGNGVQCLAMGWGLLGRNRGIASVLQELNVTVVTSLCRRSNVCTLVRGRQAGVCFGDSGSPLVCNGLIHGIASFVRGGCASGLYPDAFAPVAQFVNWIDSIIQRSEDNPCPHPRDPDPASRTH
Source text: It should be noted that the pyrimidine-based trifluoromethyl ketones (FIG. 2) were recently described as inhibitors of the serene protease, elastase. Since ICE is a cysteine protease and it is known in the prior art that trifluoromethyl ketones are rather poor inhibitors of cysteine proteases (See, Imperialia, B. and Ables, R. H., Biochemistly (1986), 2, 3760-7), it is expected that the pyrimidines of FIG. 2 would not be inhibitors of ICE. Also, it is known that ICE requires the aspartic acid side chain (—CH2COOH) at PI. Pyrimidines which inhibit elastase (FIG. 2) contain the valine side chain (—CHMe2).
Compounds of examples 1, 6 and 7 were examined for their ability to inhibit elastase. The in vitro assay was carried out as described by Cha, Biochem. Pharmacol., (1975), 24, 2177-2185.

| SMILES | IC50 [1] | IC50 (elastase) |
| --- | --- | --- |
| CC(C)OC(=O)Nc1cnc(-c2ccccc2)n(CC(=O)N[C@@H](CC(=O)O)C(=O)COc2cc(C(F)(F)F)nn2-c2ccccc2)c1=O [Example 7, N-[2-(5-Isopropyloxycarbonylamino-6-oxo-2-phenyl-1,6-dihydro-1-pyrimidinyl)acetoyl]-L-aspartic Acid 5-(1-phenyl-3-trifluoromethyl)pyrazoloxymethyl Ketone] | 0.1 to 10 µM | ≥ 10 µM |
| O=C(O)C[C@H](NC(=O)Cn1c(-c2ccc(F)cc2)ncc(NC(=O)OCc2ccccc2)c1=O)C(=O)COC(=O)c1c(Cl)cccc1Cl [Example 1] | 0.1 to 10 µM | ≥ 10 µM |
| O=C(O)C[C@H](NC(=O)Cn1c(-c2ccc(F)cc2)ncc(NC(=O)OCc2ccccc2)c1=O)C(=O)COc1cc(C(F)(F)F)nn1-c1ccccc1 [Example 6, N-[2-(5-Benzyloxycarbonylamino-6-oxo-2-(4-fluorophenyl)-1,6-dihydro-1-pyrimidinyl)acetoyl]-L-aspartic Acid 5-(1-phenyl-3-trifluoromethyl)pyrazoloxymethyl Ketone] | 0.1 to 10 µM | ≥ 10 µM |
